One data set has as its target T1, A2A receptor (Homo sapiens, UniProt P29274).
T1 construct: purchased
Description: Radioligand receptor binding assay, A2A receptor. The settings on record: cell membranes overexpressing A2A receptor, read-out: Potency Ki A2A. The method in brief:
(§1)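 Membranes from cell lines overexpressing human A2A, A1 or A3 receptors were incubated 60 min at room temperature with the receptor-appropriate [3H] tracer. After filtration and washing in 50 mM Tris HCl pH 7.5, bound label was counted by scintillation. IC50 came from nonlinear regression and Ki from the Cheng-Prusoff equation.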

The target in another data set is T2, A3 receptor (Homo sapiens, UniProt P0DMS8).
T2 construct: purchased
T2 sequence (P0DMS8 1-318): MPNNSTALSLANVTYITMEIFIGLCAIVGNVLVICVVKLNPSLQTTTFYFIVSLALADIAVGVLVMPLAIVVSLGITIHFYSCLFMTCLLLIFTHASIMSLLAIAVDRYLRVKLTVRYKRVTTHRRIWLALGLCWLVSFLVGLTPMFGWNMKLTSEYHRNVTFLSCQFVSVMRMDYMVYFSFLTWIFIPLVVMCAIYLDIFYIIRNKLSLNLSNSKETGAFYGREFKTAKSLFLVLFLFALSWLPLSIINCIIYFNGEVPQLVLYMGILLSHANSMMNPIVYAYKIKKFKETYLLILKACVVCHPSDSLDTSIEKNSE
Description: Radioligand receptor binding assay, A3 receptor. The settings on record: cell membranes overexpressing A3 receptor, read-out: Potency Ki A3. On the procedure: Using conventional receptor binding assay techniques, Compounds 1-24 were assayed to determine binding activity at the A2A, A1, and A3 receptors with the results shown in Table 7.
Receptor binding affinity of Compounds 1-24 was measured using radioligand binding assays using commercially obtained cell membranes prepared from cell lines overexpressing the A2A, A1, or A3 receptors. Briefly, cell membrane preparations from cells expressing the specific receptor were mixed with the appropriate [^3H]-labeled tracer for the specific receptor and the test compound or a known inhibitor of receptor-ligand binding. Following 60 min incubation at room temperature to allow receptor-ligand complex formation, the complexes were collected by filtration, washed with 50 mM Tris HCl (pH 7.5) to remove radioligand that was not receptor-bound, and the remaining radioactivity determined by liquid scintillation counting. Specific radioligand binding was calculated for each test compound concentration and IC50 values were determined by non-linear, regression analysis. Inhibition constants (Ki) were calculated using the equation of Cheng and Prusoff using the observed IC50 of the tested compound, the concentration of radioligand employed in the assay and the experimentally determined values for the Kd of the ligand.

Data set [1] can be described thus: Plasma pharmacokinetic parameters following intravenous (IV) or oral (PO) administration in rats. Type of data set: in vivo, Sprague-Dawley rats. The settings on record: male, Sprague-Dawley, rat, plasma; for AUC / bioavailability: 2.5 mg/kg; for clearance: intravenous, 0.5 mg/kg. The method in brief:
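Fasted male Sprague-Dawley rats (230-250 g, n=2/group), dosed 0.5 mg/kg IV (jugular) or 2.5 mg/kg PO gavage in water. Plasma sampled 2–1440 min, analyzed by LC-MS/MS; non-compartmental analysis with nominal doses/times gave AUC, Cmax, Tmax, CL, Vss, MRTlast, F.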

Data set [2] is described as follows: Brain-to-plasma ratio (B/P) after administration. The data set is classed as in vivo, Sprague-Dawley rats. The settings on record: Sprague-Dawley, rat, brain-to-plasma ratio at 1 h. The method in brief: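 Plasma pharmacokinetic parameters determined after oral (PO) administration; brain-to-plasma concentration ratio (B/P) used as the brain penetration measure.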

For the next data set, the target named is T3, A1 receptor (Homo sapiens, UniProt P30542).
T3 construct: purchased
T3 sequence (P30542 1-326): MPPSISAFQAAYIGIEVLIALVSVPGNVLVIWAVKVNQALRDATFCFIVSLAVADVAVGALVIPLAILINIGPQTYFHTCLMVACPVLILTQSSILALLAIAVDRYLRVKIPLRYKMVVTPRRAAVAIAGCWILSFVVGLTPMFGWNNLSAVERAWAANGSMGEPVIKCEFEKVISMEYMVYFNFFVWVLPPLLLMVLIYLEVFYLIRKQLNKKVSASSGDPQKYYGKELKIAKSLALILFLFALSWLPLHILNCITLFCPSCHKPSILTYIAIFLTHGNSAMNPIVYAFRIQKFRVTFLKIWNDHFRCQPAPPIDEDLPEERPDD
Description: Radioligand receptor binding assay, A1 receptor. The settings on record: cell membranes overexpressing A1 receptor, read-out: Potency Ki A1. The method in brief: as §1

The next data set has as its system mouse CT-26 cells. Description: Antitumor activity in CT26 subcutaneous tumor model in Balb/c mice. Type of data set: in vivo. The settings on record: day 13 vs vehicle; 30 mg/kg qdx9 PO + anti-PD1 antibody 200 μg/mouse q2dx4 IP. On the procedure:
Mice used were ˜ 6-8 week-old female Balb/c mice subcutaneously inoculated with 2×10^6 mouse CT-26 cells. […] The mice were divided into six treatment groups as follows: vehicle (qdx9) PO+IP, Compound 1 (10 mg/kg, qdx9)+an exemplary anti-mouse PD1 (CD279) antibody (BioXCell) (200 μg/mouse, q2dx4); Compound 1 (30 mg/kg, qdx9)+anti-PD1 antibody (200 μg/mouse, q2dx4), Compound 1 (100 mg/kg)+anti-PD1 antibody (200 μg/mouse, q2dx4), anti-PD1 antibody (200 μg/mouse, q2dx4), or preladenant (30 mg/kg, qdx9)+anti-PD1 antibody (200 μg/mouse, q2dx4). Compound 1 and preladenant were administered orally. The anti-PD1 antibody was administered IP. Body weight was measured daily. Tumor growth of the CT26 cells was monitored three times per week by measuring the tumor volume size using a caliper with the results shown in FIG. 5.

The mark [3] stands for this setting: Table 6, oral (PO) administration essentially as described in Example 28.
The mark [4] stands for this setting: Table 6, essentially as described in Example 28.
The mark [5] stands for this setting: po, Table 6, oral (PO) administration essentially as described in Example 28.
Setting [6] is: oral, Table 2 summary of Example 27, values marked 1 are the average of experiments.

T1 sequence (P29274 whole entry): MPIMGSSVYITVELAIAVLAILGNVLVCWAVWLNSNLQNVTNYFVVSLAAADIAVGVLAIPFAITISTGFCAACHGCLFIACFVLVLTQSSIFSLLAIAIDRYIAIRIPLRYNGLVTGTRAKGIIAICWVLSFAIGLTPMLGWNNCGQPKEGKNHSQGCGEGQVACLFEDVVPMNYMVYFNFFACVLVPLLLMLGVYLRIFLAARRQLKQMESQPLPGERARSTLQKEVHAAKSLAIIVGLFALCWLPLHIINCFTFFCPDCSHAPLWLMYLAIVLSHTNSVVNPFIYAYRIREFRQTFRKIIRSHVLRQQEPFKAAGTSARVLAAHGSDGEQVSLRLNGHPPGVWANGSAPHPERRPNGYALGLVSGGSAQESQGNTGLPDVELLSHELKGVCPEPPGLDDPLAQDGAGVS

For `[2H]C([2H])([2H])OC([2H])([2H])C([2H])([2H])Oc1ccc(N2CCN(C([2H])([2H])C([2H])([2H])N(c3cc4nc(-c5ncco5)nn4c(N)n3)C([2H])([2H])[2H])CC2)cc1` [Compound 16, N^7-(^2H3)methyl-N^7-[2-{4-[4-({2-[(^2H3)methyloxy](^2H4)ethyl}oxy)phenyl]piperazin-1-yl}(^2H4)ethyl]-2-(1,3-oxazol-2-yl)[1,2,4]triazolo[1,5-c]pyrimidine-5,7-diamine], the Ki is 4 nM on A2A receptor, above 10000 nM on A3 receptor and above 100000 nM at A1 receptor. The AUC in data set [1] (setting [3]) was determined as 1200 ng·h/mL. The molecule further gave a clearance in data set [1] (setting [4]) of 20 mL/min/kg. For the same molecule, in data set [1] (setting [5]), the bioavailability came to 58%. Moreover, the Kp at 1 h in data set [2] (oral, 2.5 mg/kg, Table 6) came to 0.06.
Take `COCCOc1ncc(N2CCN(CCN(C)c3cc4nc(-c5ncco5)nn4c(N)n3)CC2)cc1C(F)(F)F` [Compound 22, N^7-(2-{4-[6-(2-methoxyethoxy)-5-(trifluoromethyl)pyridin-3-yl]piperazin-1-yl}ethyl)-N^7-methyl-2-(1,3-oxazol-2-yl)[1,2,4]triazolo[1,5-c]pyrimidine-5,7-diamine]: the figures for the Ki at A2A receptor and at A1 receptor were 11 nM and 3200 nM, respectively. In addition, in data set [1] (setting [3]), the AUC is 280 ng·h/mL. In data set [1] (setting [4]), the clearance came out at 38 mL/min/kg. The same molecule yielded a bioavailability in data set [1] (setting [5]) of 25%. Further, in data set [2] (oral, 2.5 mg/kg, Table 6), the Kp at 1 h is 0.03.
With `COCCOc1ccc(N2CCN(CCN(C)c3cc4nc(-c5ncco5)nn4c(N)n3)CC2)nc1` [Compound 23, N^7-(2-{4-[5-(2-methoxyethoxy)pyridin-2-yl]piperazin-1-yl}ethyl)-N^7-methyl-2-(1,3-oxazol-2-yl)[1,2,4]triazolo[1,5-c]pyrimidine-5,7-diamine], the inhibition constant (Ki) on A2A receptor was 9 nM; at A1 receptor, 15500 nM. In data set [1] (setting [3]), the AUC is 336 ng·h/mL. For the same molecule, in data set [1] (setting [4]), the clearance is 52 mL/min/kg. The same molecule displayed a bioavailability in data set [1] (setting [5]) of 42%. The Kp at 1 h in data set [2] (oral, 2.5 mg/kg, Table 6) worked out at 0.08.
Turning to `COCCOc1ccc(N2CCN(CCNc3cc4nc(-c5ncco5)nn4c(N)n3)CC2)cc1` [Compound 24, N^7-(2-{4-[4-(2-methoxyethoxy)phenyl]piperazin-1-yl}ethyl)-2-(1,3-oxazol-2-yl)[1,2,4]triazolo[1,5-c]pyrimidine-5,7-diamine], the Ki on A2A receptor is 43 nM; on A1 receptor, above 10000 nM. For the same molecule, the area under the curve (AUC) in data set [1] (setting [3]) came to 1070 ng·h/mL. In data set [1] (setting [4]), this molecule displayed a clearance of 28 mL/min/kg. In data set [1] (setting [5]), this molecule showed a bioavailability of 70%. In addition, the Kp at 1 h in data set [2] (oral, 2.5 mg/kg, Table 6) is 0.11.
For `COCCOc1ccc(N2CCN(CCN(C)c3cc4nc(-c5ccco5)nn4c(N)n3)CC2)cc1` [Reference compound, 2-(furan-2-yl)-N^7-(2-(4-(4-(2-methoxyethoxy)phenyl)piperazin-1-yl)ethyl)-N^7-methyl-[1,2,4]triazolo[1,5-c]pyrimidine-5,7-diamine, reference compound], at A2A receptor, the Ki stood at 2.6 nM. For the same molecule, in data set [1] (Table 2 summary of Example 27, values marked 1 are the average of experiments), the clearance was 34 mL/min/kg. In data set [1] (setting [6]), this molecule gave an AUC of 408 ng·h/mL and a bioavailability of 34%. Further, in data set [2] (Table 2), the Kp at 1 h was 0.17. The Ki at A1 receptor is 1270 nM.
Preladenant [reference compound]: in the data set on mouse CT-26 cells, the “% TGI” value is 56^3%.

As a reminder, the Ki is a dissociation constant, usually derived from enzyme kinetics or from competition with a known ligand. The AUC is concentration integrated over time. One may read the bioavailability as the share of a dose that reaches the circulation, judged against a reference dose that is usually intravenous. A higher bioavailability goes with good availability. As usually defined, the Kp is the ratio of the level in a tissue or fluid to that in plasma or blood.

These data come from patent US12325708B2, “Adenosine 2 receptor antagonists” (Nektar Therapeutics, priority 2019, dated 2025).
